Results on 17 compounds are retold here after PubChem BioAssay (NCI).

The structures appear in SMILES notation. “And” between values parts separate entries of the source, which are not always exact repeats. Equal entries are not always repeated.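 Protocol summary: plate cells (96-well), add compound at 5 concentrations, incubate 48 h, interpolate endpoints linearly. GI50: concentration for 50% inhibition of growth. TGI: concentration producing complete growth inhibition.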

Among the test systems are M19-MEL melanoma; HS 578T breast; KM20L2 colon; DLD-1 colon; MCF7 breast; SNB-78 CNS; XF 498 CNS; BT-549 breast; PC-3 prostate; DMS 114 small cell lung; HOP-18 NSCLC.
Common to all, as to assay: NCI anticancer screen, dose series, 48 h

Take `CC(=O)NNc1nc(C)c(C(=O)NNC(=O)C(=O)Nc2nc3ccc([N+](=O)[O-])cc3s2)s1`: the TGI in the assay with M19-MEL melanoma, with HS 578T breast, in the assay on KM20L2 colon, in the assay on DLD-1 colon, with MCF7 breast and with SNB-78 CNS was > 100 µM throughout. For the same compound, the TGI is 75.9 µM with XF 498 CNS, > 100 µM in the assay on BT-549 breast, > 100 µM in the assay on PC-3 prostate and 82.5 µM in the assay on DMS 114 small cell lung.

Regarding `CC1(C)CC[C@H](C2=CC(=O)c3c(O)ccc(O)c3C2=O)O1`, the GI50 in the assay with HOP-18 NSCLC is 1.83 µM and 1.72 µM and 0.265 µM; in the assay on XF 498 CNS, 2.3 µM and 2.36 µM and 0.563 µM; with BT-549 breast, 0.963 µM and 0.358 µM; in the assay on DMS 114 small cell lung, 1.63 µM. In addition, the TGI with HOP-18 NSCLC is 3.39 µM and 3.15 µM and 0.703 µM; in the assay on HS 578T breast, 6.78 µM and 7.42 µM; with MCF7 breast, 0.739 µM and 0.337 µM; in the assay with XF 498 CNS, 4.6 µM and 3.89 µM and 1.34 µM; with BT-549 breast, 2.19 µM and 1.13 µM; in the assay with PC-3 prostate, 7.34 µM and 4.16 µM. Moreover, the TGI in the assay on DMS 114 small cell lung was 2.21 µM and 3.14 µM and 0.47 µM.

As to `COC1OC(C)C(OCc2ccccc2)C(OS(=O)(=O)c2ccc(C)cc2)C1OS(=O)(=O)c1ccc(C)cc1` (configuration not stated), the TGI with M19-MEL melanoma, in the assay with HOP-18 NSCLC, with KM20L2 colon, in the assay on DLD-1 colon, with SNB-78 CNS and with DMS 114 small cell lung was > 100 µM throughout.

Take `CC(=O)N(C(C)=O)C1=C2c3ccccc3N(S(=O)(=O)c3ccccc3)C2n2c(=O)n(-c3ccccc3)c(=O)n2C1` (configuration not stated): the TGI in the assay with M19-MEL melanoma was 94.7 µM; with HOP-18 NSCLC, 86.4 µM; in the assay on KM20L2 colon, > 100 µM; in the assay with DLD-1 colon, > 100 µM.

In the case of `CNC(=O)c1cc2c(Oc3ccc(NC(=O)C4(C(=O)Nc5ccc(F)cc5)CC4)cc3)ccnc2cc1OC`, the GI50 with HS 578T breast was 1.11 µM; with MCF7 breast it was 2.55 µM; in the assay on BT-549 breast, 3.01 µM; in the assay with PC-3 prostate, 3.09 µM. For the same compound, the TGI in the assay on HS 578T breast was 4.69 µM; in the assay on MCF7 breast, > 100 µM; with BT-549 breast, 9.6 µM; in the assay with PC-3 prostate, > 100 µM.

For the compound `COC(=O)/C(C#N)=C1\CCC(C(=O)OC)N1C` (configuration not stated), the TGI in the assay with M19-MEL melanoma, in the assay with KM20L2 colon, with DLD-1 colon, in the assay with SNB-78 CNS, in the assay on XF 498 CNS and in the assay on DMS 114 small cell lung was > 100 µM each time.

For `CCCCCCCCCCCCCC(=O)OCC1OC(=O)CC1O` (configuration not stated), the TGI with HOP-18 NSCLC was 67.3 µM; in the assay with KM20L2 colon, > 100 µM; with DLD-1 colon, > 100 µM; in the assay on SNB-78 CNS it was > 100 µM; in the assay with XF 498 CNS it was > 100 µM; with DMS 114 small cell lung, > 100 µM.

For `Cc1nc(Nc2n[nH]c3c2CN(C(=O)N[C@H](CN(C)C)c2ccccc2)C3(C)C)c2sccc2n1`, the GI50 in the assay on HS 578T breast was 0.144 µM and 0.469 µM; in the assay on MCF7 breast, 0.00523 µM and < 0.01 µM; in the assay on BT-549 breast, 0.393 µM and 0.189 µM; in the assay with PC-3 prostate it was 0.242 µM and 0.041 µM. For the same compound, the TGI in the assay with HS 578T breast is > 5.44 µM and 14.7 µM; in the assay on MCF7 breast it was > 5.5 µM and 6.46 µM; in the assay with BT-549 breast it was 3.63 µM and 3.12 µM; with PC-3 prostate, > 6.33 µM and 9.76 µM.

Consider `CC(=O)[CH-]C(C)=O.[CH2-]C.[CH2-]C.[Tl+3]`, for which the GI50 in the assay with HOP-18 NSCLC, in the assay with KM20L2 colon, with DLD-1 colon, with XF 498 CNS and with DMS 114 small cell lung was > 100 µM in each case. Further, the TGI with HOP-18 NSCLC, in the assay with KM20L2 colon, with DLD-1 colon, in the assay with XF 498 CNS and in the assay with DMS 114 small cell lung was > 100 µM each time.

With `CC1(C)N=C(N)N=C(N)N1c1ccc(OCC(=O)Nc2ccccc2)c(Cl)c1`, the GI50 in the assay with HS 578T breast was > 100 µM; with MCF7 breast, 0.886 µM; in the assay on BT-549 breast it was 22.3 µM; in the assay on PC-3 prostate it was 0.123 µM. For the same compound, the TGI with HS 578T breast was > 100 µM; with MCF7 breast, > 100 µM; with BT-549 breast, > 100 µM; in the assay on PC-3 prostate it was > 66.5 µM.

As for `CC1=C(C(=O)Nc2ccccc2C)C(/C=C/c2ccccc2)C(C(=O)Nc2ccccc2C)=C(C)N1`, the TGI with M19-MEL melanoma, with HOP-18 NSCLC, with KM20L2 colon, in the assay on DLD-1 colon, in the assay on SNB-78 CNS and in the assay on XF 498 CNS was > 100 µM in each case.

As for `C=CCO/N=C/c1cc(NC(=S)c2ccoc2C)ccc1Cl`, the TGI in the assay with HS 578T breast was found to be 64.4 µM; in the assay with MCF7 breast, 23.3 µM; with BT-549 breast, 34.7 µM; in the assay on PC-3 prostate, 27.6 µM.

For the compound `O=c1c2c3c(sc2n2c(-c4cc(-c5ccccc5)nn4-c4ccccc4)nnc2n1Cc1ccccc1)CCCC3`, the GI50 is 48 µM in the assay with HS 578T breast, > 100 µM in the assay with MCF7 breast, > 100 µM with BT-549 breast and > 100 µM with PC-3 prostate. Moreover, the TGI in the assay with HS 578T breast, with MCF7 breast, with BT-549 breast and in the assay on PC-3 prostate was > 100 µM each time.

For `CCOC(=O)c1ccc(N[C@@H]2c3cc4c(cc3C(C3=CC(=O)C(=O)C(OC)=C3)[C@H]3C(=O)OCC32)OCO4)cc1` (some centres not stated), the TGI in the assay on M19-MEL melanoma was 36.4 µM; in the assay on KM20L2 colon, 32.1 µM; in the assay on DLD-1 colon, > 39.8 µM; in the assay on SNB-78 CNS, > 54.6 µM; in the assay with XF 498 CNS it was 9.38 µM; in the assay with DMS 114 small cell lung, 6.89 µM.

For `Cn1c(/C(C#N)=C/c2ccc3ccccc3c2)cc2ccccc21`, the GI50 is 0.162 µM in the assay with HS 578T breast, 0.0946 µM with MCF7 breast, 0.474 µM in the assay on BT-549 breast and 0.22 µM in the assay with PC-3 prostate. In addition, the TGI with HS 578T breast, in the assay with MCF7 breast, in the assay with BT-549 breast and with PC-3 prostate was > 100 µM each time.

On to `O=C(NC12CC3CC(CC(C3)C1)C2)C(=O)c1c[nH]c2ccc(Cl)cc12`, for which the TGI is > 100 µM with M19-MEL melanoma; > 100 µM with KM20L2 colon; > 100 µM in the assay on SNB-78 CNS; 43 µM with XF 498 CNS; > 100 µM in the assay on DMS 114 small cell lung.

`COc1ccccc1/C=C/C(=O)/C=C/c1ccccc1O`: the GI50 is 2.25 µM with HS 578T breast, 0.195 µM in the assay on MCF7 breast, 1.39 µM in the assay on BT-549 breast and 0.539 µM with PC-3 prostate. Moreover, the TGI amounted to 11.7 µM with HS 578T breast, 1.73 µM in the assay with MCF7 breast, 3.01 µM in the assay with BT-549 breast and 2.75 µM in the assay on PC-3 prostate.
